Measurements taken from ChEMBL document CHEMBL1148862, “Evaluation of the anti-hepatitis C virus effect of novel potent, selective, and orally bioavailable JNK and VEGFR kinase inhibitors” (Bioorg Med Chem Lett, 2007).
pEC50: −log10 of the molar value.

Legend:
[1] = test system: Hepatitis C virus; experiment: Antiviral activity against HCV in Huh7-Rep cells by luciferase assay; assay type: functional, organism-based, Hepacivirus hominis
[2] = Cytotoxicity against MT4 cells by luciferase assay; assay type: cell-based; details: human
[3] = Cytotoxicity against Huh7 cells by luciferase assay; assay type: cell-based, Huh-7; details: human

Cc1ccccc1Nc1nc(-c2cc(Br)ccc2F)nc2nccnc12
pEC50 [1]: 5.19 | CC50 [2]: > 32 µM | CC50 [3]: > 32 µM

COc1cnc(-c2cc(Cl)ccc2F)nc1Nc1ccncc1C(=O)NC1CCN(C(=O)OC(C)(C)C)CC1
pEC50 [1]: 6.00 | CC50 [2]: 3.9 µM | CC50 [3]: 4 µM

CN(c1ccncc1)c1nc(-c2cc(Br)ccc2F)nc2nccnc12
pEC50 [1]: 5.44 | CC50 [2]: > 32 µM | CC50 [3]: > 32 µM

Clc1cccc(-c2nc(Nc3ccncc3)c3nccnc3n2)c1
pEC50 [1]: 5.78 | CC50 [2]: > 32 µM | CC50 [3]: > 32 µM

Fc1ccc(Br)cc1-c1nc(Nc2ccncc2)c2nccnc2n1
pEC50 [1]: 6.46 | CC50 [2]: > 32 µM | CC50 [3]: > 32 µM

CCCCN(c1ccncc1)c1nc(-c2cc(Br)ccc2F)nc2nccnc12
pEC50 [1]: 5.66 | CC50 [2]: > 32 µM | CC50 [3]: > 32 µM

COc1cnc(-c2cc(Cl)ccc2F)nc1Nc1ccncc1C(=O)NCCCN1CCCCC1C (stereo not given)
pEC50 [1]: 6.26 | CC50 [2]: 3.3 µM | CC50 [3]: 3.6 µM

COc1cnc(-c2cc(Cl)ccc2F)nc1Nc1ccncc1C(=O)NCC(F)(F)F
pEC50 [1]: 5.92 | CC50 [2]: > 32 µM | CC50 [3]: > 32 µM

CCOC(=O)CNC(=O)c1cnccc1Nc1nc(-c2cc(Cl)ccc2F)ncc1OC
pEC50 [1]: 5.34 | CC50 [2]: > 32 µM | CC50 [3]: > 32 µM

Cc1cnccc1Nc1nc(-c2cc(Br)ccc2F)nc2nccnc12
pEC50 [1]: 6.10 | CC50 [2]: > 32 µM | CC50 [3]: > 32 µM

Oc1nc(-c2cc(Cl)ccc2F)nc2nccnc12
pEC50 [1]: < 4.30 | CC50 [2]: > 25 µM | CC50 [3]: > 25 µM

Fc1ccc(Cl)cc1-c1nc(Nc2ccncc2)c2nccnc2n1
pEC50 [1]: 6.05 | CC50 [2]: > 25 µM | CC50 [3]: > 25 µM

CCc1cnccc1Nc1nc(-c2cc(Cl)ccc2F)nc2nccnc12
pEC50 [1]: 6.15 | CC50 [2]: > 32 µM | CC50 [3]: > 32 µM

Cc1cnccc1Nc1nc(-c2cc(Cl)ccc2F)nc2nccnc12
pEC50 [1]: 5.70 | CC50 [2]: > 32 µM | CC50 [3]: > 32 µM

Cc1cc(Nc2nc(-c3cc(Br)ccc3F)nc3nccnc23)ccn1
pEC50 [1]: 5.44 | CC50 [2]: 13.2 µM | CC50 [3]: 12.9 µM
